Here are results for three compounds from US20070054940A1, “Remedy for down's syndrome” (EISAI CO., LTD., priority 2003, published 2007).

Counter-ions that a name gives are not always drawn.

The test system of one data set is Down's syndrome. The settings on record: in vivo; cited from earlier work.
Data set [1] can be described thus: Blood concentration in the patient with rapid retrogression. The settings on record: human, in vivo; 2 mg/day oral, house visit after 2 months. The protocol:
It was confirmed that the subject was spontaneously getting up in the morning with extreme regularity. In addition, in daily activities the patient was sorting laundry, and before administration could not fold one piece in 30 minutes, but after administration could process 10 to 20 pieces in 10 minutes, and was approaching the level prior to the symptoms of rapid retrogression. Furthermore, the patient was able to spontaneously take medicine without the instruction of a parent. […] The blood concentration was 13.7 ng/mL.

Data set [2] relates to human children with Down's syndrome. The settings on record: 25 human children with Down's syndrome; cited from earlier work.
Data set [3] concerns Down's syndrome model mouse. The settings on record: cited from earlier work.

Take `N[C@@H](Cc1c[nH]c2ccc(O)cc12)C(=O)O` [5-hydroxytryptophan]: the “Development of motor skills, language skills, intelligence, or socialization” value in the data set with Down's syndrome is “no efficacy was seen”.

The compound `COc1cc2c(cc1OC)C(=O)C(CC1CCN(Cc3ccccc3)CC1)C2` (stereo not shown) [donepezil hydrochloride] gave a concentration at 2 months in data set [1] of 13.7 ng/mL.

Consider `NC(=O)CN1CCCC1=O` [piracetam], for which the Cognitive function entry in data set [2] was “no improvement in cognitive function was seen”; in data set [3], “an effect in improving cognitive function was seen”.
